Measurements reported in patent US9745335B2 (Blirt S.A., priority 2012, dated 2017).
≈ marks a conversion by molar mass, not a printed value. Read-outs that look alike come from different tables or passages of the source.

Assays:
LLC-PK1 cells = experiment: cytotoxic activity against mammalian cells in tissue culture (MTT); assay type: cell-based, pig
Experimental: (§1) All media contained 100 μg/ml of penicillin G and streptomycin. 24-wells microplates containing appropriate medium were inoculated with the cells in amount of 1.2×10^4 cells/well and allowed to stand overnight. Next, tested compounds as solution in dimethylsulfoxide (DMSO) were added in volume of 10 μl (serial 2× dilutions). To control well 10 μl of DMSO was added. Microplates with cell suspensions were incubated for 120 h at temperature 37° C. at atmosphere of 95%/5% CO2. After incubation, to all wells 200 μl of solution of 3-(4,5-dimethyltiazole-2-yl)-2,5-diphenylotetrazole bromide (MTT) in PBS (4 mg/ml) was added and plates were further incubated for 4 h at 37° C. Next, to dissolve crystals of formazane 1 ml of DMSO was added and absorption of solutions was measured at the wavelength λ=540 nm (A540), using a microplates reader (Victor^3, Perkin-Wallac). […] From these graphs IC50 values were read, that is concentration of tested compound in the presence at which A540 value is half of A540 value measured in the control sample.

HepG2 cells = experiment: as above; assay type: cell-based, human
Experimental: as §1

CCRF-CEM cells = experiment: as above; assay type: cell-based, human
Experimental: as §1

Human erythrocytes = experiment: hemotoxicity determination (hemolytic activity); assay type: cell-based
Experimental: The hemotoxicity determination was carried out by the serial dilutions method, according to the procedure described earlier (Slisz, M., et al., E., J Antibiot 57: 669-678 (2004). Human erythrocytes were suspended in the solution of saline to obtain a cell density of suspension 2×10^7/ml. Suitable amounts of diluted solutions of compounds were added to the cell suspension in tubes and were incubated at 37° C. for 30 minutes and then centrifuged (1700×g, 10 min, 4° C.). The concentration of hemoglobin in supernatant after centrifugation of erythrocytes suspension were determined by measuring the absorbance at wavelength λ=540 nm (A540). The maximum level of hemolysis was obtained after incubation of cells suspension in the presence of 0.1% Tritone X-100 (control sample). […] From these graphs, the EH50 values were read which are the interpolated concentrations of compound, for which the A540 value is exactly 50% of the A540 value measured for the control sample.

[1] = test system: Saccharomyces cerevisiae ATCC 9763; experiment: antifungal activity in vitro, serial dilution in RPMI 1640; assay type: cell-based; conditions: RPMI 1640, pH 7.0; for Antifungal activity IC50: Saccharomyces cerevisiae ATCC 9763 (first head over MIC and IC50); for Antifungal activity MIC: Saccharomyces cerevisiae ATCC 9763
Experimental: (§2) For the determination of antifungal activity in vitro we used method of serial dilution in buffered medium RPMI 1640, pH 7.0, in a 96-wells microplates, according to the standard procedure (National Committee for Clinical Laboratory Standards. Reference method for broth dilution antifungal susceptibility testing of yeast, approved standard, 2nd ed. M27-A2 vol. 22 Wayne, Pa., 2002). The optical density of cells suspension was measured using a microplates reader (Victor^3, Perkin-Elmer) at the wavelength λ=531 nm (A531). On the basis of obtained results the diagrams of relation between A531 values and concentration of examined compound were made.

[2] = test system: Candida lusitaniae DSM 70102; experiment: as above; assay type: cell-based
Experimental: as §2

[3] = test system: Candida albicans ATCC 10231; experiment: as above; assay type: cell-based
Experimental: as §2

[4] = test system: Candida glabrata DSM 11226; experiment: as above; assay type: cell-based
Experimental: as §2

Candida krusei DSM 6128 = experiment: as above; assay type: cell-based
Experimental: as §2

[5] = test system: Candida tropicalis KKP 334; experiment: as above; assay type: cell-based
Experimental: as §2

[6] = human erythrocytes, 37° C., 30 minutes

SMILES | IC50 (cytotoxic activity) (LLC-PK1 cells) | IC50 (cytotoxic activity) (HepG2 cells) | IC50 (cytotoxic activity) (CCRF-CEM cells) | Hemotoxi EH50 (Human erythrocytes) | Antifungal activity IC50 [1] | Antifungal activity MIC [1] | Antifungal activity MIC [2] | Antifungal activity MIC [3] | Antifungal activity MIC [4] | Antifungal activity MIC (Candida krusei DSM 6128) | Antifungal activity MIC [5] | Hemotoxi EH50 (Human erythrocytes; [6]) | IC50 (cytotoxic activity) (LLC-PK1 cells; LLC-PK1, 120 h, MTT) | IC50 (cytotoxic activity) (HepG2 cells; HepG2, 120 h, MTT) | IC50 (cytotoxic activity) (CCRF-CEM cells; CCRF-CEM, 120 h, MTT)
CCCN(CC1(O)OCC(O)C(O)C1O)C1C(O)C(C)OC(OC2C=CC=CC=CC=CC=CC=CC=CC(C)C(O)C(C)C(C)OC(=O)CC(O)CC(O)CCC(O)C(O)CC(O)CC3(O)CC(O)C(C(=O)O)C(C2)O3)C1O (stereo not shown) [Compound A16, N-fructosyl-N-n-propylamphotericin B] | >100 µg/mL | 73.3 ± 1.20 µg/mL (≈ 65 µM) | 50.1 ± 1.3 µg/mL (≈ 44.4 µM) |  |  |  |  |  |  |  |  |  |  |  | 
C[C@@H]1[C@H](O)[C@@H](C)/C=C/C=C/C=C/C=C/C=C/C=C/C=C/[C@H](O[C@@H]2O[C@H](C)[C@@H](O)[C@H](NC(=S)NCCN(C)C)[C@@H]2O)C[C@@H]2O[C@](O)(C[C@@H](O)C[C@@H](O)[C@H](O)CC[C@@H](O)C[C@@H](O)CC(=O)O[C@H]1C)C[C@H](O)[C@H]2C(=O)O [Compound A28, N-{3-[2-(N,N-dimethylamino)ethyl]thioureidyl}amphotericin B] | >100 µg/mL | >100 µg/mL | >100 µg/mL | 81.73 µg/mL | 0.50 µg/mL | 1 µg/mL | 1 µg/mL | 1 µg/mL | 4 µg/mL | 2 µg/mL | 1 µg/mL |  |  |  | 
C[C@@H]1[C@H](O)[C@@H](C)/C=C/C=C/C=C/C=C/C=C/C=C/C=C/[C@H](O[C@@H]2O[C@H](C)[C@@H](O)[C@H](NC(=O)[C@H](N)CC(=O)OC(C)(C)C)[C@@H]2O)C[C@@H]2O[C@](O)(C[C@@H](O)C[C@@H](O)[C@H](O)CC[C@@H](O)C[C@@H](O)CC(=O)O[C@H]1C)C[C@H](O)[C@H]2C(=O)O [Compound A35, N-D-(O^β-tert-butyl)asparagylamphotericin B] |  |  |  |  | 1.40 µg/mL | 4 µg/mL | 2 µg/mL | 4 µg/mL | 4 µg/mL | 4 µg/mL | 4 µg/mL | >100 µg/mL | 70.7 ± 2.3 µg/mL (≈ 64.5 µM) | >100 µg/mL | >100 µg/mL
Cc1cc(C)c(N2C(=O)CC(N[C@@H]3[C@H](O)[C@H](O[C@H]4/C=C/C=C/C=C/C=C/C=C/C=C/C=C/[C@H](C)[C@@H](O)[C@@H](C)[C@H](C)OC(=O)C[C@H](O)C[C@H](O)CC[C@@H](O)[C@H](O)C[C@H](O)C[C@]5(O)C[C@H](O)[C@@H](C(=O)O)[C@H](C4)O5)O[C@H](C)[C@H]3O)C2=O)c(C)c1 (stereo partly shown) [Compound A1, N—[N-(2,4,6-trimethylphenyl)succinimidyl]amphotericin B] |  |  |  | >100 µg/mL | 0.98 µg/mL | 2 µg/mL | 2 µg/mL | 4 µg/mL | 8 µg/mL | 8 µg/mL | 4 µg/mL |  |  |  | 
C[C@@H]1[C@H](O)[C@@H](C)/C=C/C=C/C=C/C=C/C=C/C=C/C=C/[C@H](O[C@@H]2O[C@H](C)[C@@H](O)[C@H](NC3CC(=O)N(c4ccc(Br)cc4)C3=O)[C@@H]2O)C[C@@H]2O[C@](O)(C[C@@H](O)C[C@@H](O)[C@H](O)CC[C@@H](O)C[C@@H](O)CC(=O)O[C@H]1C)C[C@H](O)[C@H]2C(=O)O (stereo partly shown) [Compound A3, N—[N-(4-bromophenyl)succinimidyl]amphotericin B] |  |  |  | >100 µg/mL | 2.85 µg/mL | 4 µg/mL | 4 µg/mL | 4 µg/mL | 8 µg/mL | 8 µg/mL | 4 µg/mL |  |  |  | 
C[C@@H]1[C@H](O)[C@@H](C)/C=C/C=C/C=C/C=C/C=C/C=C/C=C/[C@H](O[C@@H]2O[C@H](C)[C@@H](O)[C@H](NC(=O)[C@H](N)COC(C)(C)C)[C@@H]2O)C[C@@H]2O[C@](O)(C[C@@H](O)C[C@@H](O)[C@H](O)CC[C@@H](O)C[C@@H](O)CC(=O)O[C@H]1C)C[C@H](O)[C@H]2C(=O)O [Compound A40, N-D-(O-tert-butyl)serylamphotericin B] |  |  |  |  | 1.35 µg/mL | 2 µg/mL | 2 µg/mL | 2 µg/mL | 4 µg/mL | 4 µg/mL | 4 µg/mL | >200 µg/mL |  |  | 
C[C@@H]1[C@H](O)[C@@H](C)/C=C/C=C/C=C/C=C/C=C/C=C/C=C/[C@H](O[C@@H]2O[C@H](C)[C@@H](O)[C@H](NC3CC(=O)N(CCO)C3=O)[C@@H]2O)C[C@@H]2O[C@](O)(C[C@@H](O)C[C@@H](O)[C@H](O)CC[C@@H](O)C[C@@H](O)CC(=O)O[C@H]1C)C[C@H](O)[C@H]2C(=O)O (stereo partly shown) [Compound A8, N—[N-(2-hydroxyethyl)succinimidyl]amphotericin B] |  |  |  | >100 µg/mL | 1.36 µg/mL | 4 µg/mL | 4 µg/mL | 4 µg/mL | 8 µg/mL | 8 µg/mL | 4 µg/mL |  |  |  | 
C[C@@H]1[C@H](O)[C@@H](C)/C=C/C=C/C=C/C=C/C=C/C=C/C=C/[C@H](O[C@@H]2O[C@H](C)[C@@H](O)[C@H](NCc3ccc(-c4ccccc4)cc3)[C@@H]2O)C[C@@H]2O[C@](O)(C[C@@H](O)C[C@@H](O)[C@H](O)CC[C@@H](O)C[C@@H](O)CC(=O)O[C@H]1C)C[C@H](O)[C@H]2C(=O)O [Compound A20, N-[(4-biphenyl)methyl]amphotericin B] |  |  |  |  | 1.63 µg/mL | 4 µg/mL | 4 µg/mL | 4 µg/mL | 4 µg/mL | 4 µg/mL | 4 µg/mL | >100 µg/mL |  |  | 
C[C@@H]1[C@H](O)[C@@H](C)/C=C/C=C/C=C/C=C/C=C/C=C/C=C/[C@H](O[C@@H]2O[C@H](C)[C@@H](O)[C@H](NC(=S)Nc3cccnc3)[C@@H]2O)C[C@@H]2O[C@](O)(C[C@@H](O)C[C@@H](O)[C@H](O)CC[C@@H](O)C[C@@H](O)CC(=O)O[C@H]1C)C[C@H](O)[C@H]2C(=O)O [Compound A26, N-[3-(pyridin-3-yl)thioureidyl]amphotericin B] |  |  |  | >100 µg/mL | 2.55 µg/mL | 4 µg/mL | 4 µg/mL | 4 µg/mL | 8 µg/mL | 8 µg/mL | 4 µg/mL |  |  |  | 
